Data taken from patent US20200239530A1, “COMPOUNDS AND METHODS OF MODULATING PROTEIN DEGRADATION” (Vividion Therapeutics, Inc., priority 2017, published 2020).

Legend:
[1] = target: T1, TNFAIP3 Tumor necrosis factor alpha-induced protein 3 (Homo sapiens, UniProt P21580); assay: Cysteine liganding, probe competition; assay type: binding
T1 construct: Cells were resuspended in cold PBS on ice and sonicated with a probe sonicator to achieve lysis; endogenous in cells
T1 sequence (P21580 1-790): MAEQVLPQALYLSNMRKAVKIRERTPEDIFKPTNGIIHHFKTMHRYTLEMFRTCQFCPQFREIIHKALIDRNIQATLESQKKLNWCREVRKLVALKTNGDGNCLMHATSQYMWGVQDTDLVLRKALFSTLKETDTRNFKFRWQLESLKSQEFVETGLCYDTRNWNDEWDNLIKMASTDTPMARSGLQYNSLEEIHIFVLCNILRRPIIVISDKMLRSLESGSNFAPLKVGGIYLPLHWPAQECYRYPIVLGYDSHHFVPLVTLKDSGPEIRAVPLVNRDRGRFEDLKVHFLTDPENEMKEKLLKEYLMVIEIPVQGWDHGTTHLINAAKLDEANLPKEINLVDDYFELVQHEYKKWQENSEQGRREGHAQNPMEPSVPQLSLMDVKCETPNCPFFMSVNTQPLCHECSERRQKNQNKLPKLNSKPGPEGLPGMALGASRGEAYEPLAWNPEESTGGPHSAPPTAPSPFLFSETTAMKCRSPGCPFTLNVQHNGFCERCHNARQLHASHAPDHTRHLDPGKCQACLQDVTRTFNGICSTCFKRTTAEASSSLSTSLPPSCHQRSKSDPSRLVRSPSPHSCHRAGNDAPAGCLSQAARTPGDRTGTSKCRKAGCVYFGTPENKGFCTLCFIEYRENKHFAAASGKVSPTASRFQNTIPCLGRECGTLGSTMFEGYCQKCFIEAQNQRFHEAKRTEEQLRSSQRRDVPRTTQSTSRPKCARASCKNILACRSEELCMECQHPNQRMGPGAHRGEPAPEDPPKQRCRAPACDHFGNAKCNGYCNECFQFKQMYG
Method in brief: (§1)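 Steps: sonicate cells in cold PBS; treat 5 mg/ml lysate with compound (25° C, 1 hr); add desthiobiotin iodoacetamide probe from a 10 mM stock (25° C, 1 hr); precipitate, reduce, alkylate, digest with trypsin; capture labelled peptides on streptavidin for analysis.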

[2] = target: T2, L2HGDH L-2-hydroxyglutarate dehydrogenase, mitochondrial (Homo sapiens, UniProt Q9H9P8); assay: Cysteine liganding, probe competition; assay type: binding
T2 construct: Cells were resuspended in cold PBS on ice and sonicated with a probe sonicator to achieve lysis; endogenous in cells
T2 sequence (Q9H9P8 52-463): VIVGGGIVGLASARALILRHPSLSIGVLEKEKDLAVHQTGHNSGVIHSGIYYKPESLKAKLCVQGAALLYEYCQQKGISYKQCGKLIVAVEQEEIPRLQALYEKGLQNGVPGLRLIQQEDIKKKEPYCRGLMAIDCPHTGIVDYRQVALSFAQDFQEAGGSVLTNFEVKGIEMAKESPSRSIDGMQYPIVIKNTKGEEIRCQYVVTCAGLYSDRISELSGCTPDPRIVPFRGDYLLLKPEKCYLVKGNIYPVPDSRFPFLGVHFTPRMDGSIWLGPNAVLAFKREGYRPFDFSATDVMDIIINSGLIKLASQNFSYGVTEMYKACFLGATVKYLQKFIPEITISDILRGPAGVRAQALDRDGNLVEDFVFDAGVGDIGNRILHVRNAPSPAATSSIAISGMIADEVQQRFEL
Method in brief: as §1

[3] = TNFAIP3 Res# 54, uniprot P21580

Compound: COc1ccc2c(c1)CCCN2C(=O)CCl [KB02]
- Liganded [1, 3]: YES
- Liganded ([1]; TNFAIP3 Res# 536, uniprot P21580): YES
- Liganded ([1]; TNFAIP3 Res# 579, uniprot P21580): YES
- Liganded ([2]; L2HGDH Res# 187, uniprot Q9H9P8): YES

Compound: O=C(CCl)Nc1cc(C(F)(F)F)cc(C(F)(F)F)c1 [KBO3]
- Liganded [1, 3]: YES
- 100 Max ([2]; uniprot Q9H9P8): 39.03
- 100 ave ([2]; uniprot Q9H9P8): 26.9925
- 500 Max ([2]; uniprot Q9H9P8): 70.21
- 500 ave ([2]; uniprot Q9H9P8): 67.435
